The source of these data is patent publication US9346786B2, “Pyrrolidine compounds” (Hoffmann-La Roche Inc., priority 2009, dated 2016).

Like-named read-outs stand apart in the source and are kept apart here.

The assay deals with recombinant human NK3 receptor (Homo sapiens (Human), UniProt P29371). Nature of the assay: biochemical. In kind it is binding. Particulars: read-out: Data Ki (hNK-3 receptor affinity).
Where [1] appears, read: [3H]SR142801, membranes of HEK293 cells transiently expressing recombinant human NK3 receptor.

Chain of recombinant human NK3 receptor (P29371 whole entry): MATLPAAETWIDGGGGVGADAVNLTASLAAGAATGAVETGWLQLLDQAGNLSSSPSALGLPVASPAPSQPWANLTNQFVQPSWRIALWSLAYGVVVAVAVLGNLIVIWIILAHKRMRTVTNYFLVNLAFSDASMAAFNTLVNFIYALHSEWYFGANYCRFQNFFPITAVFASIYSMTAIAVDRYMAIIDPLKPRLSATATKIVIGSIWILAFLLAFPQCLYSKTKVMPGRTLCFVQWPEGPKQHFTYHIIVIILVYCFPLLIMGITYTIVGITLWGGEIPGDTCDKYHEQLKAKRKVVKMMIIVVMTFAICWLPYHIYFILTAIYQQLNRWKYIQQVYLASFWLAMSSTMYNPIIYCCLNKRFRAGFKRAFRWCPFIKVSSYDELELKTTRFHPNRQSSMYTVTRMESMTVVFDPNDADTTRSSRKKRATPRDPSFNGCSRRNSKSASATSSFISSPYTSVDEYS

Usually Ki stands for a dissociation constant, usually derived from enzyme kinetics or from competition with a known ligand. `CCN(C(=O)Oc1ccc(F)cc1)[C@@H]1CN(C(=O)C2CCN(C(=O)c3cnc(C(F)(F)F)cn3)CC2)C[C@H]1c1ccc(Cl)c(F)c1` [Example 78, {(3S,4R)-4-(4-Chloro-3-fluoro-phenyl)-1-[1-(5-trifluoromethyl-pyrazine-2-carbonyl)-piperidine-4-carbonyl]-pyrrolidin-3-yl}-ethyl-carbamic acid 4-fluoro-phenyl ester]: the Ki under setting [1] was 5 nM.

Turning to `N#Cc1ccc(N2CCC(C(=O)N3C[C@H](c4ccc(Cl)cc4)[C@@H](N(C(=O)Oc4ccc(F)cc4)C4CC4)C3)CC2)nc1` [Example 34, [(3R,4S)-4-(4-Chloro-phenyl)-1-(5′-cyano-3,4,5,6-tetrahydro-2H-[1,2′]bipyridinyl-4-carbonyl)-pyrrolidin-3-yl]-cyclopropyl-carbamic acid 4-fluoro-phenyl ester], under setting [1], the Ki was determined as 116 nM.

In the case of `CCN(C(=O)Oc1ccc(F)cc1)[C@@H]1CN(C(=O)C2CCN(c3ccc(C#N)cn3)CC2)C[C@H]1c1ccc(F)c(F)c1` [Example 48, [(3S,4R)-1-(5′-Cyano-3,4,5,6-tetrahydro-2H-[1,2′]bipyridinyl-4-carbonyl)-4-(3,4-difluoro-phenyl)-pyrrolidin-3-yl]-ethyl-carbamic acid 4-fluoro-phenyl ester], the Ki under setting [1] came to 2 nM.

In the case of `CCN(C(=O)Oc1ccc(F)cc1)[C@@H]1CN(C(=O)C2CCN(c3ccc(C#N)cn3)CC2)C[C@H]1c1ccc(Cl)c(F)c1` [Example 40, [(3S,4R)-4-(4-Chloro-3-fluoro-phenyl)-1-(5′-cyano-3,4,5,6-tetrahydro-2H-[1,2′]bipyridinyl-4-carbonyl)-pyrrolidin-3-yl]-ethyl-carbamic acid 4-fluoro-phenyl ester], the Ki under setting [1] worked out at 0.7 nM.

Regarding `CCN(C(=O)Oc1ccc(F)cc1)[C@@H]1CN(C(=O)C2CCN(c3ccc(C(C)=O)cn3)CC2)C[C@H]1c1ccc(F)c(Cl)c1` [Example 120, [(3S,4R)-1-(5′-Acetyl-3,4,5,6-tetrahydro-2H-[1,2′]bipyridinyl-4-carbonyl)-4-(3-chloro-4-fluoro-phenyl)-pyrrolidin-3-yl]-ethyl-carbamic acid 4-fluoro-phenyl ester], the Ki under setting [1] was found to be 1.7 nM.

For `CCN(C(=O)Oc1ccc(F)cc1)[C@@H]1CN(C(=O)C2CCN(c3ccc(Cl)cn3)CC2)C[C@H]1c1ccc(Cl)c(Cl)c1` [Example 113, [(3S,4R)-1-(5′-Chloro-3,4,5,6-tetrahydro-2H-[1,2′]bipyridinyl-4-carbonyl)-4-(3,4-dichloro-phenyl)-pyrrolidin-3-yl]-ethyl-carbamic acid 4-fluoro-phenyl ester], under setting [1], the Ki was 0.5 nM.

Take `CCN(C(=O)Oc1ccc(F)cc1)[C@@H]1CN(C(=O)C2CCN(C(=O)C3CC(F)(F)C3)CC2)C[C@H]1c1ccc(Cl)c(F)c1` [Example 66, {(3S,4R)-4-(4-Chloro-3-fluoro-phenyl)-1-[1-(3,3-difluoro-cyclobutanecarbonyl)-piperidine-4-carbonyl]-pyrrolidin-3-yl}-ethyl-carbamic acid 4-fluoro-phenyl ester]: the Ki under setting [1] came out at 1 nM.

For `CCN(C(=O)Oc1ccc(F)cc1)[C@@H]1CN(C(=O)C2CCN(c3ccc(C(F)(F)F)cn3)CC2)C[C@H]1c1ccc(Cl)c(Cl)c1` [Example 114, [(3S,4R)-4-(3,4-Dichloro-phenyl)-1-(5′-trifluoromethyl-3,4,5,6-tetrahydro-2H-[1,2′]bipyridinyl-4-carbonyl)-pyrrolidin-3-yl]-ethyl-carbamic acid 4-fluoro-phenyl ester], under setting [1], the Ki worked out at 1.6 nM.

With `CCN(C(=O)Oc1ccc(F)cc1)[C@@H]1CN(C(=O)C2CCN(c3ccc(C(F)(F)F)cn3)CC2)C[C@H]1c1ccc(Cl)c(F)c1` [Example 42, [(3S,4R)-4-(4-Chloro-3-fluoro-phenyl)-1-(5′-trifluoromethyl-3,4,5,6-tetrahydro-2H-[1,2′]bipyridinyl-4-carbonyl)-pyrrolidin-3-yl]-ethyl-carbamic acid 4-fluoro-phenyl ester], under setting [1], the Ki came out at 2 nM.

Consider `CCN(C(=O)Oc1ccc(F)cc1)[C@@H]1CN(C(=O)C2CCN(c3ccc(F)cn3)CC2)C[C@H]1c1ccc(Cl)c(F)c1` [Example 46, [(3S,4R)-4-(4-Chloro-3-fluoro-phenyl)-1-(5′-fluoro-3,4,5,6-tetrahydro-2H-[1,2′]bipyridinyl-4-carbonyl)-pyrrolidin-3-yl]-ethyl-carbamic acid 4-fluoro-phenyl ester], for which the Ki under setting [1] stood at 1 nM.

For `CCN(C(=O)Oc1ccc(F)cc1)[C@@H]1CN(C(=O)C2CCN(c3ccc(C(F)(F)F)cn3)CC2)C[C@H]1c1ccc(Cl)cc1` [Example 20, [(3S,4R)-4-(4-Chloro-phenyl)-1-(5′-trifluoromethyl-3,4,5,6-tetrahydro-2H-[1,2′]bipyridinyl-4-carbonyl)-pyrrolidin-3-yl]-ethyl-carbamic acid 4-fluoro-phenyl ester], the Ki was found to be 3 nM.

As to `CCN(C(=O)Oc1ccccc1F)[C@@H]1CN(C(=O)C2CCN(C(=O)C3(C#N)CC3)CC2)C[C@H]1c1ccc(Cl)cc1` [Example 85, {(3S,4R)-4-(4-Chloro-phenyl)-1-[1-(1-cyano-cyclopropanecarbonyl)-piperidine-4-carbonyl]-pyrrolidin-3-yl}-ethyl-carbamic acid 2-fluoro-phenyl ester], under setting [1], the Ki was 23.3 nM.

As to `O=C(C1CCN(c2ccc(C(F)(F)F)cn2)CC1)N1C[C@@H](N(C(=O)Oc2ccc(F)cc2)C2CC2)[C@H](c2ccc(Cl)cc2)C1` [Example 31, [(3S,4R)-4-(4-Chloro-phenyl)-1-(5′-trifluoromethyl-3,4,5,6-tetrahydro-2H-[1,2′]bipyridinyl-4-carbonyl)-pyrrolidin-3-yl]-cyclopropyl-carbamic acid 4-fluoro-phenyl ester], the Ki was determined as 57 nM.

`CCN(C(=O)Oc1ccc(F)cc1)[C@H]1CN(C(=O)C2CCN(c3ccc(S(C)(=O)=O)cn3)CC2)C[C@@H]1c1ccc(Cl)cc1` [Example 10, [(3R,4S)-4-(4-Chloro-phenyl)-1-(5′-methanesulfonyl-3,4,5,6-tetrahydro-2H-[1,2′]bipyridinyl-4-carbonyl)-pyrrolidin-3-yl]-ethyl-carbamic acid 4-fluoro-phenyl ester]: under setting [1], the Ki is 65 nM.

Take `CCN(C(=O)Oc1ccc(F)cc1)[C@@H]1CN(C(=O)C2CCN(C(=O)C3CC3(F)F)CC2)C[C@H]1c1ccc(Cl)cc1` (stereo partly drawn) [Example 96, {(3S,4R)-4-(4-Chloro-phenyl)-1-[1-(2,2-difluoro-cyclopropanecarbonyl)-piperidine-4-carbonyl]-pyrrolidin-3-yl}-ethyl-carbamic acid 4-fluoro-phenyl ester]: the Ki under setting [1] was 3.4 nM.

Turning to `CCN(C(=O)Oc1ccc(F)cc1)[C@@H]1CN(C(=O)C2CCN(C(=O)C3CC(F)(F)C3)CC2)C[C@H]1c1ccc(Cl)cc1` [Example 90, {(3S,4R)-4-(4-Chloro-phenyl)-1-[1-(3,3-difluoro-cyclobutanecarbonyl)-piperidine-4-carbonyl]-pyrrolidin-3-yl}-ethyl-carbamic acid 4-fluoro-phenyl ester], under setting [1], the Ki is 2.4 nM.

In the case of `CCN(C(=O)Oc1ccc(F)cc1)[C@@H]1CN(C(=O)C2CCN(C(=O)C3(C)COC3)CC2)C[C@H]1c1ccc(Cl)cc1` [Example 88, {(3S,4R)-4-(4-Chloro-phenyl)-1-[1-(3-methyl-oxetane-3-carbonyl)-piperidine-4-carbonyl]-pyrrolidin-3-yl}-ethyl-carbamic acid 4-fluoro-phenyl ester], the Ki under setting [1] was 5.6 nM.
